Assay results as given in patent publication US6572877B2, “Worm food composition” (Legend Laboratories Corporation, priority 2001, dated 2003).

Test system: Lumbricus terrestris
Test: Feeding experiment with Lumbricus terrestris (Canadian night crawler), cartons of one dozen worms plus bedding
Assay type: in vivo
Conditions: Carton 1
Method: The first experiment was conducted with Lumbricus terrestris. Lumbricus terrestris typically measures from 90-300 mm by 6-10 mm having a dark anterior and a pale flattened posterior. These worms live in an anecic habit meaning that they build permanent, vertical burrows that extend typically 2.5 m into the soil. Such worms feed in decaying organic material and grow and breed very slowly compared to other worms. This worm must have the burrow to return to and simply won't perform well in a worm bin. In their natural habitat such worms can live up to six years.
In the experiment, five cartons containing one dozen worms plus bedding each were kept in the refrigerator at 36° F. to 40° F. prior to the beginning the experiment. After refrigeration the following compounds were added to the specified cartons. Carton 1 was treated with a stock solution of 5 ml xanthene acid yellow 73 from a stock solution of 0.5 g xanthene acid yellow 73 in 500 ml distilled water. Carton 2 was treated with 5 grams of a stock mixture having 40 grams corn meal and 1 gram xanthene acid yellow 73. This mixture was simply added to Carton 2 and was not agitated. Carton 3 was treated with 5 grams of the same stock mixture and shaken gently to evenly disperse the mixture in Container 3. Carton 4 was treated with 5 grams from a mixture of 40 grams corn meal and 2 grams xanthene acid yellow 73 and was not agitated. […]

## O=C([O-])c1ccccc1-c1c2ccc(=O)cc-2oc2cc([O-])ccc12.[Na+].[Na+] [xanthene acid yellow 73]
5 ml of stock solution 0.5 g in 500 ml distilled water, after 7 days
  color of the worm: no change in the color of the worm
5 ml of stock solution, after six weeks
  condition of the worms: weak and dying from lack of nutrition
